Our source for the LC50, LD50 and NOAEL values is EPA's ToxValDB 9.5 (doi:10.2903/j.efsa.2011.2419).

Each structure is given as a SMILES string.

One data set deals with Anas platyrhynchos. The following applies: short-term; oral; feed; mortality.
The subject of a further data set is Colinus virginianus. The following applies: acute, oral, mortality; for LC50: diet.
The subject of the next data set is Rattus norvegicus. To be noted: inhalation.
Setting [1] is: reproduction developmental, mortality.

Take `[Ca+2].[Ca+2].[Ca+2].[P-3].[P-3]` [Tricalcium diphosphide]: the LC50 in the data set with Anas platyrhynchos was 2040 mg/kg; in the data set on Colinus virginianus, 330 mg/kg. This compound showed an LD50 in the data set on Colinus virginianus of less than 24.7 mg/kg-day. Also, the NOAEL in the data set with Rattus norvegicus (chronic, duration: 2 years) was determined as 1.1 mg/kg-day; in the data set on Rattus norvegicus (setting [1]), 1.9 mg/kg-day; with Rattus norvegicus (subchronic, duration: 90 days) it was 1.1 mg/kg-day.

On to `P` [Phosphine], for which the LC50 came out at 762 mg/kg in the data set on Anas platyrhynchos and 124 mg/kg in the data set with Colinus virginianus. In addition, the LD50 with Colinus virginianus was less than 9.2 mg/kg-day. In addition, the NOAEL is 1.1 mg/kg-day in the data set on Rattus norvegicus (chronic, duration: 2 years); 1.9 mg/kg-day in the data set on Rattus norvegicus (setting [1]); 1.1 mg/kg-day in the data set with Rattus norvegicus (subchronic, duration: 90 days).
